Consider nine compounds from PubChem BioAssay AID1259408 (Genetic Toxicology Data Bank (GENE-TOX), 2018).

In the data set the test system is GENE-TOX genotoxicity assays, various organisms and cells. The experiment in a line: GENE-TOX mutagenicity studies.
Setting [1] is: Species/Cell Type: Human, Assay Type: Sister-chromatid exchange (SCE) in vitro, Assay Code: SC1+D, Dose Response: With dose response, Evaluation Type: Evaluation B (Post-1980).
[2] abbreviates: Species/Cell Type: Nonhuman, Assay Type: Chromosome aberrations in vitro, Assay Code: CY&+, Evaluation Type: Evaluation A (Pre-1980).
The mark [3] stands for this setting: Species/Cell Type: Salmonella typhimurium (one or more of the five standard strains: TA98, TA100, TA1535, TA1537, and TA1538), Assay Type: Histidine reverse gene mutation, Ames assay, Assay Code: SAL+, Evaluation Type: Evaluation A (Pre-1980).
[4] abbreviates: Species/Cell Type: Rodents, Sex: Male, Assay Type: Dominant lethal test, Assay Code: DLTT, Evaluation Type: Evaluation A (Pre-1980).

The structures appear in SMILES notation. The source made the active and inactive calls. No rule for the calls is given here.

As for `O=[O+][O-]`, the mutagenic call (Species/Cell Type: Human lymphocytes or leukocytes, Assay Type: Chromosome aberrations in vitro, Assay Code: CY7T, Evaluation Type: Evaluation A (Pre-1980)) is reported as “no conclusion”; the mutagenic call (Species/Cell Type: Human lymphocytes or leukocytes, Assay Type: Chromosome aberrations in vivo, Assay Code: CY8T, Evaluation Type: Evaluation A (Pre-1980)) is recorded as “no conclusion”; the mutagenic call under setting [1] is “active; positive”; the mutagenic call (Species/Cell Type: Mammalian germ cells, Sex: Male, Assay Type: Chromosome aberrations in vivo, Assay Code: CY9T, Evaluation Type: Evaluation A (Pre-1980)) is “no conclusion”; the mutagenic call (Species/Cell Type: Nonhuman bone marrow, Assay Type: Chromosome aberrations, in vivo, Assay Code: CY#-, Evaluation Type: Evaluation A (Pre-1980)) was “inactive; negative”; the mutagenic call (Species/Cell Type: Nonhuman lymphocytes or leukocytes, Assay Type: Chromosome aberrations in vivo, Assay Code: CY%T, Evaluation Type: Evaluation A (Pre-1980)) was “no conclusion”. The mutagenic call is, setting by setting: (Species/Cell Type: Nonhuman, Assay Type: Sister-chromatid exchange (SCE) in vivo, Assay Code: SC3-, Evaluation Type: Evaluation A (Pre-1980)) “inactive; negative”; (Species/Cell Type: Tradescantia species, Assay Type: Gene mutation, Assay Code: TRM+D, Dose Response: With dose response, Evaluation Type: Evaluation A (Pre-1980)) “active; positive”; (Species/Cell Type: Vicia faba, Assay Type: Chromosome aberrations, Assay Code: VIC+, Evaluation Type: Evaluation A (Pre-1980)) “active; positive”.

With `CCN(CC)Cc1cc(Br)ccc1OCC(=O)N/N=C\c1ccccc1`, the mutagenic call (Species/Cell Type: Saccharomyces cerevisiae, Assay Type: Reverse gene mutation, Assay Code: YERT, Evaluation Type: Evaluation A (Pre-1980)) is recorded as “no conclusion”.

`CCN(CC)CCNc1ccc(C)c2sc3ccccc3c(=O)c12`: the mutagenic call (Species/Cell Type: Drosophila melanogaster, Assay Type: Aneuploidy, whole sex chromosome loss, chromosome aberrations, Assay Code: DAC+M, Evaluation Type: Evaluation A (Pre-1980)) was “active; positive”; the mutagenic call (Species/Cell Type: Drosophila melanogaster, Assay Type: Sex-linked recessive lethal gene mutation, Assay Code: SRL+, Evaluation Type: Evaluation A (Pre-1980)) is “active; positive”; the mutagenic call (Species/Cell Type: Escherichia coli polA (W3119 vs P3478), Assay Type: Rec-assay, DNA effects (bacterial DNA repair), Assay Code: RE1+, Evaluation Type: Evaluation A (Pre-1980)) is “active; positive”; the mutagenic call (Species/Cell Type: Fischer rat embryo (RLV/1706) cells, Assay Type: Cell transformation, viral enhanced, Assay Code: CTR+, Evaluation Type: Evaluation A (Pre-1980)) was “active; positive”; the mutagenic call (Species/Cell Type: Mouse lymphoma (L5178Y) cells, Assay Type: Forward gene mutation at the thymidine kinase (TK) locus, chromosome aberrations, Assay Code: L51+, Evaluation Type: Evaluation A (Pre-1980)) was “active; positive”; the mutagenic call (Species/Cell Type: Neurospora crassa, Assay Type: Aneuploidy, chromosome aberrations, Assay Code: NEN-, Evaluation Type: Evaluation A (Pre-1980)) was “inactive; negative”. In addition, the mutagenic call is “active; positive” (Species/Cell Type: Neurospora crassa, Assay Type: Forward gene mutation, Assay Code: NEF+, Evaluation Type: Evaluation A (Pre-1980)); “active; positive” (Species/Cell Type: Salmonella typhimurium (one or more of the five standard strains: TA98, TA100, TA1535, TA1537, and TA1538), Assay Type: Histidine reverse gene mutation, Ames assay, Assay Code: SAL+*, Activation: With metabolic activation, Evaluation Type: Evaluation A (Pre-1980)); “no conclusion” (Species/Cell Type: Salmonella typhimurium (one or more of the five standard strains: TA98, TA100, TA1535, TA1537, and TA1538), Assay Type: Histidine reverse gene mutation, Ames assay, Assay Code: SALT, Evaluation Type: Evaluation A (Pre-1980)).

With `[O]=[Cr](=[O])([OH])[O][Cr](=[O])(=[O])[OH]`, the mutagenic call reads like this: (Species/Cell Type: Bacillus subtilis (H17 vs M45), Assay Type: Rec-assay, spot test, DNA effects (bacterial DNA repair), Assay Code: REW+, Evaluation Type: Evaluation A (Pre-1980)) “active; positive”; (Species/Cell Type: Chinese hamster ovary (CHO) cells, Assay Type: Forward gene mutation at the HPRT locus, Assay Code: CHO+, Evaluation Type: Evaluation B (Post-1980)) “active; positive”; (Species/Cell Type: Human lymphocytes, Assay Type: Sister-chromatid exchange (SCE) in vitro, Assay Code: SCL+D, Dose Response: With dose response, Evaluation Type: Evaluation B (Post-1980)) “active; positive”; under setting [1], “active; positive”; (Species/Cell Type: Mammalian polychromatic erythrocytes, Assay Type: Micronucleus test, chromosome aberrations, Assay Code: MNT+, Evaluation Type: Evaluation B (Post-1980)) “active; positive”; under setting [2], “active; positive”. Also, the mutagenic call reads like this: (Species/Cell Type: Nonhuman, Assay Type: Sister-chromatid exchange (SCE) in vitro, Assay Code: SC2+, Evaluation Type: Evaluation B (Post-1980)) “active; positive”; (Species/Cell Type: Nonhuman, Assay Type: Sister-chromatid exchange (SCE) in vitro, Assay Code: SC2+D, Dose Response: With dose response, Evaluation Type: Evaluation B (Post-1980)) “active; positive”; under setting [3], “active; positive”; (Species/Cell Type: Syrian hamster embryo (SHE) cells, Assay Type: Cell transformation, clonal assay, Assay Code: CTC+, Evaluation Type: Evaluation A (Pre-1980)) “active; positive”.

Turning to `CCC1(c2ccccc2)C(=O)NC(=O)N(C(=O)c2ccccc2)C1=O` (stereo not given), the mutagenic call runs as follows: under setting [4], “no conclusion”; (Species/Cell Type: Salmonella typhimurium, Assay Type: Forward and reverse gene mutation, host-mediated assay, Assay Code: HMA-, Evaluation Type: Evaluation A (Pre-1980)) “inactive; negative”.

As for `CN=C(NC#N)NCCSCc1nc[nH]c1C`, the mutagenic call (Species/Cell Type: Human lymphocytes, Assay Type: Sister-chromatid exchange (SCE) in vitro, Assay Code: SCLT, Evaluation Type: Evaluation B (Post-1980)) is listed as “no conclusion”; the mutagenic call (Species/Cell Type: Human, Assay Type: Sister-chromatid exchange (SCE) in vitro, Assay Code: SC1T, Evaluation Type: Evaluation B (Post-1980)) is “no conclusion”; the mutagenic call (Species/Cell Type: Human, Sex: Male, Assay Type: Sperm morphology, Assay Code: SPHT, Evaluation Type: Evaluation A (Pre-1980)) is “no conclusion”.

For the compound `Clc1ccc(C(c2ccc(Cl)cc2)C(Cl)(Cl)Cl)cc1`, the mutagenic call reads like this: (Species/Cell Type: Chinese hamster lung (V79) cells, Assay Type: Forward gene mutation at the HPRT or ouabain locus, Assay Code: V79+, Evaluation Type: Evaluation A (Pre-1980)) “active; positive”; (Species/Cell Type: Drosophila melanogaster, Assay Type: Aneuploidy, partial sex chromosome loss, chromosome aberrations, Assay Code: DAP+M, Evaluation Type: Evaluation A (Pre-1980)) “active; positive”; (Species/Cell Type: Drosophila melanogaster, Assay Type: Aneuploidy, sex chromosome gain, chromosome aberrations, Assay Code: DAGT, Evaluation Type: Evaluation A (Pre-1980)) “no conclusion”; (Species/Cell Type: Drosophila melanogaster, Assay Type: Aneuploidy, whole sex chromosome loss, chromosome aberrations, Assay Code: DACT, Evaluation Type: Evaluation A (Pre-1980)) “no conclusion”; (Species/Cell Type: Drosophila melanogaster, Assay Type: Sex-linked recessive lethal gene mutation, Assay Code: SRL-, Evaluation Type: Evaluation A (Pre-1980)) “inactive; negative”; (Species/Cell Type: Escherichia coli polA (W3119 vs P3478), Assay Type: Rec-assay, DNA effects (bacterial DNA repair), Assay Code: RE1T, Evaluation Type: Evaluation A (Pre-1980)) “no conclusion”. Also, the mutagenic call (Species/Cell Type: Mammalian polychromatic erythrocytes, Assay Type: Micronucleus test, chromosome aberrations, Assay Code: MNTT, Evaluation Type: Evaluation A (Pre-1980)) is “no conclusion”; the mutagenic call (Species/Cell Type: Mouse, Sex: Male, Assay Type: Sperm morphology, Assay Code: SPI-, Evaluation Type: Evaluation A (Pre-1980)) is “inactive; negative”; the mutagenic call under setting [2] was “active; positive”; the mutagenic call under setting [4] is on record as “no conclusion”; the mutagenic call (Species/Cell Type: Saccharomyces cerevisiae, Assay Type: Mitotic recombination or gene conversion, Assay Code: YEH-*, Activation: With metabolic activation, Evaluation Type: Evaluation A (Pre-1980)) was “inactive; negative”; the mutagenic call (Species/Cell Type: Salmonella typhimurium (one or more of the five standard strains: TA98, TA100, TA1535, TA1537, and TA1538), Assay Type: Histidine reverse gene mutation, Ames assay, Assay Code: SAL-, Evaluation Type: Evaluation A (Pre-1980)) was “inactive; negative”. The mutagenic call (Species/Cell Type: Salmonella typhimurium, Serratia marcesens, Assay Type: Forward and reverse gene mutation, host-mediated assay, Assay Code: HM2-, Evaluation Type: Evaluation A (Pre-1980)) was “inactive; negative”. Also, the call (Species/Cell Type: Nonhuman, Assay Type: In vivo carcinogenicity studies, Assay Code: CCG+, Evaluation Type: Evaluation A (Pre-1980)) was “active; positive”.

As to `CN=C=O`, the mutagenic call (Species/Cell Type: Mammalian polychromatic erythrocytes, Assay Type: Micronucleus test, chromosome aberrations, Assay Code: MNT+U, Dose Response: Unconfirmed positive response, Evaluation Type: Evaluation B (Post-1980)) is “active; positive”.

Take `COC(=O)c1ccc(N=Nc2ccc(N(C)OC(C)=O)cc2)cc1`: the mutagenic call under setting [3] was “active; positive”.
